Results as given in PubChem BioAssay AID1195 (EPA DSSTox, 2008).

Test system: human maximum recommended daily dose, FDA database
Assay: DSSTox (FDAMDD) FDA Maximum (Recommended) Daily Dose Database
Settings: stronger effect = lower value
Summary of the method: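 MRDD values come from clinical trials with daily oral dosing, usually for 3–12 months, for the average adult, in mg/day converted to mg/kg-bw/day assuming 60 kg. Antineoplastic mg/m2 doses are divided by 37. Activity score maps log10(1/MRDD mmol) onto 1–100.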

[1] = TherapeuticCategory: antibacterial
[2] = TherapeuticCategory: antihypertensive
[3] = TherapeuticCategory: anti inflammatory
[4] = TherapeuticCategory: antineoplastic
[5] = TherapeuticCategory: antipsychotic
[6] = TherapeuticCategory: antidepressant
[7] = TherapeuticCategory: antidiabetic
[8] = TherapeuticCategory: antiarrhythmic
[9] = TherapeuticCategory: sedative, hypnotic
[10] = TherapeuticCategory: anticholinergic
[11] = TherapeuticCategory: antihyperlipoproteinemic

Cc1cn([C@H]2C[C@H](N=[N+]=[N-])[C@@H](CO)O2)c(=O)[nH]c1=O
maximum recommended daily dose (mmol/kg-bw/day) (TherapeuticCategory: antiviral): 0.0374

CC(=O)O[C@H]1C[C@@H]2CC[C@@H]3[C@H](CC[C@@]4(C)[C@H]3C[C@H](N3CC[N+](C)(C)CC3)[C@@H]4OC(C)=O)[C@@]2(C)C[C@@H]1N1CC[N+](C)(C)CC1
maximum recommended daily dose (mmol/kg-bw/day) (TherapeuticCategory: skeletal muscle relaxant): 0.000118

C[C@@H]1CN2CC(=O)Nc3ccc(Cl)cc3[C@]2(c2ccccc2)O1
maximum recommended daily dose (mmol/kg-bw/day) (TherapeuticCategory: anxiolytic): 0.00304

COc1ccc2c3c1O[C@H]1[C@@H](O)C=C[C@H]4[C@@H](C2)N(C)CC[C@@]341
maximum recommended daily dose (mmol/kg-bw/day) (TherapeuticCategory: narcotic analgesic, antitussive): 0.02

O=C(OC1C(OC(=O)c2cccnc2)C(OC(=O)c2cccnc2)C(OC(=O)c2cccnc2)C(OC(=O)c2cccnc2)C1OC(=O)c1cccnc1)c1cccnc1 (configuration not stated)
maximum recommended daily dose (mmol/kg-bw/day) (TherapeuticCategory: vasodilator): 0.0823

Cc1cc(CC(=O)O)n(C)c1C(=O)c1ccc(Cl)cc1
maximum recommended daily dose (mmol/kg-bw/day) (TherapeuticCategory: analgesic, anti inflammatory): 0.0343

C(=C\c1ccccc1)/CN1CCN(C(c2ccccc2)c2ccccc2)CC1
maximum recommended daily dose (mmol/kg-bw/day) (TherapeuticCategory: antihistaminic, peripheral vasodilator): 0.0102

NC(=O)CS(=O)C(c1ccccc1)c1ccccc1 (configuration not stated)
maximum recommended daily dose (mmol/kg-bw/day) (TherapeuticCategory: CNS stimulant, adrenergic): 0.0122

NC(=S)N=Nc1ccc(NN=C(N)N)cc1
maximum recommended daily dose (mmol/kg-bw/day) [1]: 0.000704

CC(CC(C)(C)O)OC(O)C(Cl)(Cl)Cl (configuration not stated)
maximum recommended daily dose (mmol/kg-bw/day) (TherapeuticCategory: hypnotic): 0.101

CCC(=O)OCC(=O)[C@@]1(OC(=O)CC)[C@@H](C)C[C@H]2[C@@H]3CCC4=CC(=O)C=C[C@]4(C)[C@@]3(F)[C@@H](O)C[C@@]21C
maximum recommended daily dose (mmol/kg-bw/day) (TherapeuticCategory: glucocorticoid): 0.000297

CCCCC1=NC2(CCCC2)C(=O)N1Cc1ccc(-c2ccccc2-c2nn[nH]n2)cc1
maximum recommended daily dose (mmol/kg-bw/day) [2]: 0.0117

CC(C(=O)O)c1ccc(C(=O)c2ccccc2)s1 (configuration not stated)
maximum recommended daily dose (mmol/kg-bw/day) [3]: 0.0384

COc1cccc2c1C(=O)c1c(O)c3c(c(O)c1C2=O)C[C@@](O)(/C(C)=N/NC(=O)c1ccccc1)C[C@@H]3O[C@H]1C[C@H](N)[C@H](O)[C@H](C)O1
maximum recommended daily dose (mmol/kg-bw/day) [4]: 0.0103

O=C(CCCN1CCC(O)(c2ccc(Br)cc2)CC1)c1ccc(F)cc1
maximum recommended daily dose (mmol/kg-bw/day) [5]: 0.00198

CNCCCC1c2ccccc2C=Cc2ccccc21
maximum recommended daily dose (mmol/kg-bw/day) [6]: 0.0038

C=CC[C@]1(O)CC[C@H]2[C@@H]3CCC4=CCCC[C@@H]4[C@H]3CC[C@@]21C
maximum recommended daily dose (mmol/kg-bw/day) (TherapeuticCategory: progestogen): 0.000832

CC(CN(C)C)CN1c2ccccc2CCc2ccccc21 (configuration not stated)
maximum recommended daily dose (mmol/kg-bw/day) [6]: 0.0113

Cc1ccc(Cl)c(OCC(O)CNC(C)(C)C)c1 (configuration not stated)
maximum recommended daily dose (mmol/kg-bw/day) (TherapeuticCategory: antihypertensive, antianginal, antiarrhythmic, antiglaucomic): 0.0245

COc1ccc(Cc2nccc3cc(OC)c(OC)cc23)cc1OC
maximum recommended daily dose (mmol/kg-bw/day) (TherapeuticCategory: smooth muscle relaxant, cerebral vasodilator): 0.0295

CCCCN1CCCCC1C(=O)Nc1c(C)cccc1C (configuration not stated)
maximum recommended daily dose (mmol/kg-bw/day) (TherapeuticCategory: local anesthetic): 0.013

CCCNC(=O)NS(=O)(=O)c1ccc(Cl)cc1
maximum recommended daily dose (mmol/kg-bw/day) [7]: 0.0452

O=C(O)C(O)c1ccccc1 (configuration not stated)
maximum recommended daily dose (mmol/kg-bw/day) (TherapeuticCategory: urinary antiseptic): 0.438

OCCOCCN1CCN(C2=Nc3ccccc3Sc3ccccc32)CC1
maximum recommended daily dose (mmol/kg-bw/day) [5]: 0.0347

CC(C)(C)c1nnc(NS(=O)(=O)c2ccccc2)s1
maximum recommended daily dose (mmol/kg-bw/day) [7]: 0.042

CC(=O)OCCN1CCN(CCCN2c3ccccc3Sc3ccc(Cl)cc32)CC1
maximum recommended daily dose (mmol/kg-bw/day) [5]: 0.00336

C[C@]12CC[C@H]3[C@@H](CC=C4C[C@@H](O)CC[C@@]43C)[C@@H]1CC[C@@H]2O
maximum recommended daily dose (mmol/kg-bw/day) (TherapeuticCategory: anabolic): 0.00861

CC(C)C[C@H](N)C(=O)O
maximum recommended daily dose (mmol/kg-bw/day) (TherapeuticCategory: nutrient): 0.762

CN(C)CC/C=C1/c2ccccc2COc2ccccc21
maximum recommended daily dose (mmol/kg-bw/day) [6]: 0.0179

CC(=O)O[C@H]1C(=O)[C@@]2(C)[C@H]([C@H](OC(=O)c3ccccc3)[C@]3(O)C[C@H](OC(=O)[C@H](O)[C@@H](NC(=O)c4ccccc4)c4ccccc4)C(C)=C1C3(C)C)[C@]1(OC(C)=O)CO[C@@H]1C[C@@H]2O
maximum recommended daily dose (mmol/kg-bw/day) [4]: 0.00554

CC(C)(O)c1ccccc1CC[C@@H](SCC1(CC(=O)O)CC1)c1cccc(/C=C/c2ccc3ccc(Cl)cc3n2)c1
maximum recommended daily dose (mmol/kg-bw/day) (TherapeuticCategory: antiasthmatic): 0.000285

COc1cc(C(=O)NC2CCCNC2)cc(OC)c1OC (configuration not stated)
maximum recommended daily dose (mmol/kg-bw/day) (TherapeuticCategory: antiulcerative): 0.017

CN1C(=O)NC(=O)C(C)(C2=CCCCC2)C1=O (configuration not stated)
maximum recommended daily dose (mmol/kg-bw/day) (TherapeuticCategory: sedative, hypnotic, anesthetic): 0.0353

CC[C@]1(O)C[C@H]2CN(CCc3c([nH]c4ccccc34)[C@@](C(=O)OC)(c3cc4c(cc3OC)N(C)[C@H]3[C@@](O)(C(N)=O)[C@H](O)[C@]5(CC)C=CCN6CC[C@]43[C@@H]65)C2)C1
maximum recommended daily dose (mmol/kg-bw/day) [4]: 0.000143

Cc1cccc(Nc2ccccc2C(=O)O)c1C
maximum recommended daily dose (mmol/kg-bw/day) [3]: 0.0862

COc1ccc(C(=O)Nc2ccccc2CCC2CCCCN2C)cc1 (configuration not stated)
maximum recommended daily dose (mmol/kg-bw/day) [8]: 0.00945

Nc1nc2c(ncn2COCCO)c(=O)[nH]1
maximum recommended daily dose (mmol/kg-bw/day) (TherapeuticCategory: antiviral): 0.0591

C[C@]12COC(=O)C[C@@H]1CC[C@@H]1[C@@H]2CC[C@@]2(C)[C@H]1CC[C@]2(C)O
maximum recommended daily dose (mmol/kg-bw/day) (TherapeuticCategory: androgen): 0.00109

O=C(c1ccc(OCCN2CCCCC2)cc1)c1c(-c2ccc(O)cc2)sc2cc(O)ccc12
maximum recommended daily dose (mmol/kg-bw/day) (TherapeuticCategory: antiosteoporotic, antiestrogen): 0.0211

CC1=NS(=O)(=O)c2cc(Cl)ccc2N1
maximum recommended daily dose (mmol/kg-bw/day) [2]: 0.0347

CCC(C)C1(CC)C(=O)NC(=O)NC1=O (configuration not stated)
maximum recommended daily dose (mmol/kg-bw/day) [9]: 0.00942

CC(C)[N+](C)(CCC(C(N)=O)(c1ccccc1)c1ccccc1)C(C)C
maximum recommended daily dose (mmol/kg-bw/day) [10]: 0.000472

Cc1ccc(C)c(OCCCC(C)(C)C(=O)O)c1
maximum recommended daily dose (mmol/kg-bw/day) [11]: 0.0799

CCN(CC)C(=O)C1CN2CCc3cc(OC)c(OC)cc3C2CC1OC(C)=O (configuration not stated)
maximum recommended daily dose (mmol/kg-bw/day) (TherapeuticCategory: antipsychotic, antiemeic): 0.00103

Cc1onc(-c2c(Cl)cccc2Cl)c1C(=O)N[C@@H]1C(=O)N2[C@@H]1SC(C)(C)[C@@H]2C(=O)O
maximum recommended daily dose (mmol/kg-bw/day) [1]: 0.0355

O=C1C(=O)c2ccccc2C(O)=C1C1CCC(c2ccc(Cl)cc2)CC1 (configuration not stated)
maximum recommended daily dose (mmol/kg-bw/day) (TherapeuticCategory: antiprotozoal, antimalarial, antifungal): 0.102

c1ccc(C2(c3ccccc3)CC2C2=NCCN2)cc1 (configuration not stated)
maximum recommended daily dose (mmol/kg-bw/day) [8]: 0.0248

CCCCC[C@H](O)/C=C/[C@@H]1[C@@H](C/C=C\CCCC(=O)O)[C@@H](O)C[C@H]1O
maximum recommended daily dose (mmol/kg-bw/day) (TherapeuticCategory: oxytocic, abortifacient): 3.53e-05

CCN(CC)C(=O)[C@@H]1C=C2c3cccc4[nH]cc(c34)C[C@H]2N(C)C1
maximum recommended daily dose (mmol/kg-bw/day) (TherapeuticCategory: antipsychotic, seratonin receptor antagonist): 3.86e-05

CCN(CC)C(C)C(=O)c1ccccc1 (configuration not stated)
maximum recommended daily dose (mmol/kg-bw/day) (TherapeuticCategory: anorexic): 0.00609

CC(C(=O)O)c1ccc(N2CC=CC2)c(Cl)c1 (configuration not stated)
maximum recommended daily dose (mmol/kg-bw/day) [3]: 0.0528

COc1cccc2c1C(=O)c1c(O)c3c(c(O)c1C2=O)C[C@@](O)(C(C)=O)C[C@@H]3O[C@H]1C[C@H](N)[C@H](O)[C@H](C)O1
maximum recommended daily dose (mmol/kg-bw/day) [4]: 0.00205

CN1[C@@H]2CC(OC(=O)[C@H](CO)c3ccccc3)C[C@H]1[C@@H]1O[C@@H]12 (some centres not stated)
maximum recommended daily dose (mmol/kg-bw/day) [10]: 1.09e-06

CN1CCN(CCC=C2c3ccccc3Sc3ccc(S(=O)(=O)N(C)C)cc32)CC1
maximum recommended daily dose (mmol/kg-bw/day) (TherapeuticCategory: antipsychotic, dopamine receptor antagonist): 0.00113

CCCCCCC(C)(C)c1cc(O)c2c(c1)OC(C)(C)[C@@H]1CCC(=O)C[C@@H]21
maximum recommended daily dose (mmol/kg-bw/day) (TherapeuticCategory: antiemetic): 0.000268

CC(C)n1c(/C=C/[C@@H](O)C[C@@H](O)CC(=O)O)c(-c2ccc(F)cc2)c2ccccc21
maximum recommended daily dose (mmol/kg-bw/day) [11]: 0.00162

CN(C)CCC(O)(c1ccccc1)c1ccccc1Cl (configuration not stated)
maximum recommended daily dose (mmol/kg-bw/day) (TherapeuticCategory: antitussive): 0.00576

CNC[C@H](O)c1ccc(O)c(O)c1
maximum recommended daily dose (mmol/kg-bw/day) (TherapeuticCategory: adrenergic, bronchodilator, mydriatic, antiglaucoma): 9.12e-05

CC(C)(O/N=C(\C(=O)N[C@@H]1C(=O)N2C(C(=O)[O-])=C(C[n+]3ccccc3)CS[C@H]12)c1csc(N)n1)C(=O)O
maximum recommended daily dose (mmol/kg-bw/day) [1]: 0.243

CC[C@@H](CO)NC(=O)[C@@H]1C=C2c3cccc4[nH]cc(c34)C[C@H]2N(C)C1
maximum recommended daily dose (mmol/kg-bw/day) (TherapeuticCategory: oxytocic): 3.92e-05

CC1OC(C)OC(C)O1 (configuration not stated)
maximum recommended daily dose (mmol/kg-bw/day) [9]: 1.89

CC(CCc1ccc(O)cc1)NCCc1ccc(O)c(O)c1 (configuration not stated)
maximum recommended daily dose (mmol/kg-bw/day) (TherapeuticCategory: cardiotonic): 0.000133
